In the NIST ThermoML archive (doi:10.1016/j.tca.2017.09.023):
Several values for one entry are separate records, joined by “and”; a condition that tells them apart may be missing. Identical values can stand only once. ± gives the expanded uncertainty stated by the source.

Legend:
[1] = Molar enthalpy of transition or fusion; conditions: DSC
[2] = for Normal melting temperature: DTA; for Triple point temperature: DSC

Compound	Molar enthalpy of transition or fusion ([1]; Crystal 2) [kJ/mol]	Molar enthalpy of transition or fusion ([1]; Crystal) [kJ/mol]	Normal melting temperature ([2]; Crystal 1)	Triple point temperature ([2]; Crystal 2) [K]	Normal melting temperature ([2]; Crystal)	Molar enthalpy of transition or fusion ([1]; Crystal 3) [kJ/mol]	Triple point temperature ([2]; Crystal 3) [K]
Cc1c(C)c(C)c(Br)c(C)c1C [bromopentamethylbenzene]	4.32 ± 1.4	15.1 ± 1.5	163.0 ± 1.1 °C	411.6 ± 1.2	–	–	–
Clc1c(Cl)c(Cl)c(Cl)c(Cl)c1Cl [hexachlorobenzene]	–	23.9 ± 1.3	–	–	230.1 ± 2 °C and 231 ± 1.1 °C	–	–
Cc1c(C)c(C)c(C)c(C)c1C [hexamethylbenzene]	1.67 ± 1.4	20.6 ± 1.5	166.1 ± 1.1 °C and 167.5 ± 2 °C	384.9 ± 1.2	–	0.568 ± 1.4	117.4 ± 1.2
c1ccc(-c2ccccc2-c2ccccc2)cc1 [o-terphenyl]	–	–	–	–	57.2 ± 2 °C	–	–
Nc1c(Cl)c(Cl)c(Cl)c(Cl)c1Cl [pentachlorobenzenamine]	–	18.5 ± 1.3	–	–	235.4 ± 1.1 °C	–	–
